From US8178506B2, “Oligomeric compounds and compositions for use in modulation of small non-coding RNAs” (Regulus Therapeutics Inc., priority 2003, dated 2012)
In the oligonucleotide strings, read from the 5' end, every base follows the letter of its sugar. An asterisk marks phosphorothioate; unmarked linkages are phosphodiester. Other units and linkages are bracketed, terminal groups are in braces. A string of capitals states the bases alone. e = 2'-O-(2-methoxyethyl) (MOE); [5mC] = 5-methylcytosine

Assays:
Format in all cases: cell-based, human
[1] = system: aP2; assay: aP2 mRNA expression in adipocytes (real-time PCR); conditions: for aP2 mRNA: Table 75
Method: (§1) Expression of the four hallmark genes, HSL, aP2, Glut4, and PPARγ, is also measured in adipocytes transfected with oligomeric compounds of the invention. Cells are lysed on day nine post-transfection and total RNA is harvested. The amount of total RNA in each sample is determined using a Ribogreen Assay (Invitrogen Life Technologies, Carlsbad, Calif.).
(§2) For assaying adipocyte differentiation, expression of the four hallmark genes, HSL, aP2, Glut4, and PPARγ, as well as triglyceride (TG) accumulation and leptin secretion were measured in adipocytes transfected with the uniform 2′-MOE phosphorothioate (PS) oligomeric compounds previously described. Cells are lysed on day nine post-transfection, in a guanadinium-containing buffer and total RNA is harvested. Real-time PCR is performed (Applied Biosystems, Prism 7700) on the total RNA using the following primer/probe sets for the adipocyte differentiation hallmark genes: (aP2): forward 5′-GGTGGTGGAATGCGTCATG-3′ (SEQ ID NO: 746), reverse 5′-[…]-3′ (SEQ ID NO: 747), probe 5′-FAM-[…]-TAMRA-3′ (SEQ ID NO: 748); (Glut4): forward 5′-GGCCTCCGCAGGTTCTG-3′ (SEQ ID NO: 749), reverse 5′-[…]-3′ (SEQ ID NO: 750), probe 5′-FAM-[…]-TAMRA-3′ (SEQ ID NO: 751); (HSL): forward 5′-ACCTGCGCACAATGACACA-3′ (SEQ ID NO: 752), reverse 5′-[…]-3′ (SEQ ID NO: 753), probe 5′-FAM-[…]-TAMRA-3′ (SEQ ID NO: 754); (PPAR-γ): forward 5′-[…]-3′ (SEQ ID NO: 755), reverse 5′-[…]-3′ (SEQ ID NO: 756), probe 5′-FAM-[…]-TAMRA-3′ (SEQ ID NO: 757). The amount of total RNA in each sample is determined using a Ribogreen Assay (Molecular Probes, Eugene, Oreg.), and expression levels of the adipocyte differentiation hallmark genes were normalized to total RNA.

[2] = system: PPARγ; assay: PPARγ mRNA expression in adipocytes (real-time PCR)
Method: as §1, §2

[3] = system: adipocytes; assay: Triglyceride accumulation assay in adipocytes
Method: The triglyceride accumulation assay measures the synthesis of triglyceride by adipocytes. Triglyceride accumulation is measured using the Infinity™ Triglyceride reagent kit (Sigma-Aldrich, St. Louis, Mo.). On day nine post-transfection, cells are washed and lysed at room temperature, and the triglyceride assay reagent is added. Triglyceride accumulation is measured based on the amount of glycerol liberated from triglycerides by the enzyme lipoprotein lipase. Liberated glycerol is phosphorylated by glycerol kinase, and hydrogen peroxide is generated during the oxidation of glycerol-1-phosphate to dihydroxyacetone phosphate by glycerol phosphate oxidase. Horseradish peroxidase (HRP) uses H2O2 to oxidize 4-aminoantipyrine and 3,5 dichloro-2-hydroxybenzene sulfonate to produce a red-colored dye. Dye absorbance, which is proportional to the concentration of glycerol, is measured at 515 nm using an UV spectrophotometer. Glycerol concentration is calculated from a standard curve for each assay, and data are normalized to total cellular protein as determined by a Bradford assay (Bio-Rad Laboratories, Hercules, Calif.).
An increase in triglyceride content is another well-established marker for adipocyte differentiation. The triglyceride accumulation assay measures the synthesis of triglyceride by adipocytes. Triglyceride accumulation was measured using the Infinity™ Triglyceride reagent kit (Sigma-Aldrich, St. Louis, Mo.). Human white preadipocytes (Zen-Bio Inc., Research Triangle Park, N.C.) were grown in preadipocyte media (ZenBio Inc.). One day before transfection, 96-well plates were seeded with 3000 cells/well. Cells were transfected according to standard published procedures with 250 nM oligomeric compound in LIPOFECTIN™ (Invitrogen Corporation, Carlsbad, Calif.) (Monia et al., J. Biol. Chem. 1993 268(19):14514-22). Oligomeric compounds were tested in triplicate on each 96-well plate, and the effects of TNF-α, a positive drug control that inhibits adipocyte differentiation, were also measured in triplicate. Negative and transfectant-only controls may be measured up to six times per plate. After the cells have reached confluence (approximately three days), they were exposed to differentiation media (Zen-Bio, Inc.) containing a PPAR-γ agonist, IBMX, dexamethasone, and insulin for three days. Cells were then fed adipocyte media (Zen-Bio, Inc.), which was replaced at 2 to 3 day intervals. […] Triglyceride accumulation was measured based on the amount of glycerol liberated from triglycerides by the enzyme lipoprotein lipase. Liberated glycerol is phosphorylated by glycerol kinase, and hydrogen peroxide is generated during the oxidation of glycerol-1-phosphate to dihydroxyacetone phosphate by glycerol phosphate oxidase. Horseradish peroxidase (HRP) uses H2O2 to oxidize 4-aminoantipyrine and 3,5 dichloro-2-hydroxybenzene sulfonate to produce a red-colored dye. Dye absorbance, which is proportional to the concentration of glycerol, was measured at 515 nm using an UV spectrophotometer. Glycerol concentration was calculated from a standard curve for each assay, and data were normalized to total cellular protein as determined by a Bradford assay (Bio-Rad Laboratories, Hercules, Calif.). Results are expressed as a percent±standard deviation relative to transfectant-only control.

[4] = system: Glut4; assay: Glut4 mRNA expression in adipocytes (real-time PCR)
Method: as §1, §2

[5] = system: HSL; assay: HSL mRNA expression in adipocytes (real-time PCR)
Method: as §1, §2

[6] = Table 18, differentiating adipocytes, control = treatment with ISIS 342673
[7] = differentiating adipocytes transfected with oligomeric compound
[8] = differentiating adipocytes transfected with oligomeric compound, Table 75
[9] = Table 17, differentiating adipocytes, control = treatment with ISIS 342673

Row | Substance | AP2 mRNA [1, 6] | aP2 mRNA [1, 7] | PPAR gamma mRNA [2, 6] | PPAR gamma mRNA [2, 8] | TG (triglyceride accumulation) [3, 6] | TG (triglyceride accumulation) [3, 8] | GLUT4 mRNA [4, 6] | GLUT4 mRNA [4, 8] | HSL mRNA [5, 6] | HSL mRNA [5, 8] | AP2 mRNA [1, 7] | PPAR gamma mRNA [2, 7] | TG (triglyceride accumulation) [3, 7] | GLUT4 mRNA [4, 7] | HSL mRNA [5, 7] | AP2 mRNA [1, 9] | PPAR gamma mRNA [2, 9] | TG (triglyceride accumulation) [3, 9] | GLUT4 mRNA [4, 9] | HSL mRNA [5, 9]
1 | 328106 (antisense eA*eT*eT*eG*eA*eT*eG*e[5mC]*eG*e[5mC]*e[5mC]*eA*eT*eT*eT*eG*eG*e[5mC]*e[5mC]*eT*eA) [compound 328106] | 88.8 percentage of control | 91 percentage of untreated control (UTC) | 90.7 percentage of control | 81 percentage of untreated control (UTC) | 90.5 percentage of control | 70 percentage of untreated control (UTC) | 105.7 percentage of control | 79 percentage of untreated control (UTC) | 94.9 percentage of control | 86 percentage of untreated control (UTC) |  |  |  |  |  |  |  |  |  | 
2 | 328107 (antisense e[5mC]*eT*eG*eT*eG*eA*e[5mC]*eT*eT*e[5mC]*eT*e[5mC]*eT*eA*eT*e[5mC]*eT*eG*e[5mC]*e[5mC]*eT) [compound 328107] | 67.5 percentage of control | 68 percentage of untreated control (UTC) | 79.3 percentage of control | 71 percentage of untreated control (UTC) | 66.7 percentage of control | 51 percentage of untreated control (UTC) | 72.5 percentage of control | 52 percentage of untreated control (UTC) | 61.0 percentage of control | 55 percentage of untreated control (UTC) |  |  |  |  |  |  |  |  |  | 
3 | 328108 (antisense eA*eA*eA*e[5mC]*eT*eT*eG*eT*eT*eA*eA*eT*eT*eG*eA*e[5mC]*eT*eG*eT*e[5mC]*eA) [compound 328108] | 83.7 percentage of control | 87 percentage of untreated control (UTC) | 84.0 percentage of control | 72 percentage of untreated control (UTC) | 89.6 percentage of control | 79 percentage of untreated control (UTC) | 94.9 percentage of control | 65 percentage of untreated control (UTC) | 90.1 percentage of control | 75 percentage of untreated control (UTC) |  |  |  |  |  |  |  |  |  | 
4 | 328109 (antisense eA*eA*eA*eG*eA*eA*eG*eT*eA*eT*eA*eT*eG*e[5mC]*eA*eT*eA*eG*eG*eA*eA) [compound 328109] | 84.9 percentage of control | 68 percentage of untreated control (UTC) | 96.1 percentage of control | 69 percentage of untreated control (UTC) | 84.9 percentage of control | 23 percentage of untreated control (UTC) | 106.6 percentage of control | 55 percentage of untreated control (UTC) | 86.9 percentage of control | 62 percentage of untreated control (UTC) |  |  |  |  |  |  |  |  |  | 
5 | 328112 (antisense eA*eT*e[5mC]*eA*eT*eT*eA*e[5mC]*eT*eG*eG*eA*eT*eT*eG*e[5mC]*eT*eG*eT*eA*eA) [compound 328112] | 99.1 percentage of control |  | 102.4 percentage of control |  | 98.1 percentage of control |  | 122.5 percentage of control |  | 101.2 percentage of control |  | 73 percentage of untreated control (UTC) | 79 percentage of untreated control (UTC) | 92 percentage of untreated control (UTC) | 97 percentage of untreated control (UTC) | 89 percentage of untreated control (UTC) |  |  |  |  | 
6 | 328113 (antisense e[5mC]*eA*eA*eA*eA*eA*eT*eT*eA*eT*e[5mC]*eA*eG*e[5mC]*e[5mC]*eA*eG*eT*eT*eT*eA) [compound 328113] | 84.5 percentage of control | 87 percentage of untreated control (UTC) | 93.8 percentage of control | 85 percentage of untreated control (UTC) | 80.8 percentage of control | 74 percentage of untreated control (UTC) | 99.9 percentage of control | 78 percentage of untreated control (UTC) | 90.6 percentage of control | 83 percentage of untreated control (UTC) |  |  |  |  |  |  |  |  |  | 
7 | 328116 (antisense e[5mC]*eA*eA*eA*eA*eT*eT*eG*e[5mC]*eA*eA*eG*e[5mC]*eA*eA*eA*eT*eT*eG*e[5mC]*eA) [compound 328116] |  | 99 percentage of untreated control (UTC) |  | 95 percentage of untreated control (UTC) |  | 107 percentage of untreated control (UTC) |  | 105 percentage of untreated control (UTC) |  | 91 percentage of untreated control (UTC) |  |  |  |  |  | 87.7 percentage of control | 78.4 percentage of control | 82.1 percentage of control | 75.2 percentage of control | 75.8 percentage of control
8 | 328118 (antisense eT*eA*eT*eT*eA*eT*e[5mC]*eA*eG*e[5mC]*eA*eT*e[5mC]*eT*eG*e[5mC]*eT*eT*eG*e[5mC]*eA) [compound 328118] |  | 74 percentage of untreated control (UTC) |  | 72 percentage of untreated control (UTC) |  | 69 percentage of untreated control (UTC) |  | 57 percentage of untreated control (UTC) |  | 67 percentage of untreated control (UTC) |  |  |  |  |  | 92.7 percentage of control | 80.2 percentage of control | 69.3 percentage of control | 76.6 percentage of control | 85.3 percentage of control
